Assay results as given in patent US20040126817A1, “Gap junction permeability assay” (priority 2001, published 2004).
Counter-ions that a name gives are not always drawn.

Legend:
[1] = test system: GJIC in NRK (Normal Rat Kidney) cells, mainly Cx43; assay: Gap junction coupling assay, NRK sender cells (D1-receptor) plus NRK receiver cells (CRE-luciferase), endogenous connexins; type: cell-based; conditions: for Luciferase response, 50 μM AGA / Luciferase response, 100 μM AGA / Luciferase response, 150 μM AGA / Luciferase response, Vehicle: NRK sender:receiver 1:1, agonist 10 μM, 6½ hours; for Luciferase response, 50 μM AGA: 50 μM AGA added 30 min before; for Luciferase response, 50 μM AGA / Luciferase response, 100 μM AGA / Luciferase response, 150 μM AGA / Luciferase response, Vehicle / Luciferase responses: control = 100%; for Luciferase response, 100 μM AGA: 100 μM AGA added 30 min before; for Luciferase response, 150 μM AGA: 150 μM AGA added 30 min before; for Luciferase response, Vehicle: no AGA (DMSO); for Luciferase responses: NRK sender:receiver 1:1, 10 μM forskolin or 1 μM cAMP, 6 hours
HeLa cells = assay: CRE-luciferase response in HeLa receiver cells only; type: cell-based, human; conditions: n=2, control = 100%
Protocol: This is conformed by an experiment in which apomorphine is added to wells containing only receiver cells. As predicted, there is no elicited response. Luciferase activity values are 100.0±6.5% (control, n=2) and 75.9±3.0% (apomorphine, n=2).

NRK cells = assay: CRE-luciferase response in NRK receiver cells only (check for endogenous D1-receptor); type: cell-based, rat; conditions: for Luciferase responses: 10 μM, 6½ hours, control = 100%
Protocol: These experiments are performed to investigate whether the NRK cells express the D1-receptor endogenously. If NRK cells express D1 receptor endogenously, the receiver cells would be able to generate cAMP and produce a chemiluminescent signal independently of GJIC and the endogenous messenger generated by the sender cell. So only receiver cells are used for this experiment.
Cells are transfected with 5 μg CRE-luciferase DNA and 500 ng pRL-SV40 DNA per 6 cm dish. Each well of a 24-well plate received 250 μL cell suspension and 250 μL media, or approx. 25 000 cells. Cells are stimulated with 10 μM forskolin or apomorphine during 6½ hours before harvesting.

[2] = test system: GJIC in CHO (Chinese Hamster Ovary) cells; assay: Gap junction coupling assay, CHO sender and receiver cells with or without exogenous Cx32; type: cell-based; conditions: 10 μM, 8 hours, control = 100%, duplicates; for Luciferase response, With exogenous Cx32: CHO transfected with Cx32 DNA; for Luciferase response, No exogenous Cx32: CHO
[3] = test system: Cx32-mediated GJIC in HeLa cells; assay: Gap junction coupling assay, HeLa sender and receiver cells with or without transfected Cx32; type: cell-based, human; conditions: 10 μM, duplicates; for Luciferase response, Cells transfected with Cx32: 4.8 μg Cx32 DNA; for Luciferase response, Cells transfected with Cx32 / Luciferase response, Cells not transfected with Cx32: 1 ml sender + 0.2 ml receiver cells, percentage of control; for Luciferase response, Single dose Cx32: sender cells 2.4 μg Cx32 DNA; for Luciferase response, Single dose Cx32 / Luciferase response, Double dose Cx32: control = 100%; for Luciferase response, Double dose Cx32: sender cells 4.8 μg Cx32 DNA
[4] = IV injection of glucagon in humans; cited from earlier work

Compound | Luciferase responses (NRK cells) | Luciferase response, With exogenous Cx32 [2] [%] | Luciferase response, No exogenous Cx32 [2] [%] | Luciferase response, Cells transfected with Cx32 [3] [%] | Luciferase response, Cells not transfected with Cx32 [3] [%] | Luciferase response, Single dose Cx32 [3] [%] | Luciferase response, Double dose Cx32 [3] [%] | Luciferase response, 50 μM AGA [1] [%] | Luciferase response, 100 μM AGA [1] [%] | Luciferase response, 150 μM AGA [1] [%] | Luciferase response, Vehicle [1] [%] | Luciferase responses [1] [%] | further results
CC1(C)[C@@H](O)CC[C@]2(C)[C@H]3C(=O)C=C4[C@H]5C[C@@](C)(C(=O)O)CC[C@]5(C)CC[C@@]4(C)[C@]3(C)CC[C@@H]12 [18-alpha-glycyrrhetinic acid] |  |  |  |  |  |  |  |  |  |  |  |  | effect on the apomorphine-induced chemiluminescent signal (GJIC) ([1]; NRK, 50, 100, 150 μM AGA, 10 μM apomorphine): able to decrease this effect in a concentration-dependent manner; effect on the response to forskolin (independent of GJIC) ([1]; NRK, 50, 100, 150 μM AGA, 10 μM forskolin): unaffected
CN1CCc2cccc3c2[C@H]1Cc1ccc(O)c(O)c1-3 [Apomorphine, Apomorphine hydrochloride] | 124.8%±6.8 | 302.2 ± 2.2 | 222.6 ± 22.6 | 217.5 ± 3.0 | 109.5 ± 1.1 | 121.1 ± 7.2 | 176.5 ± 8.1 | 156.0 ± 8.9 | 137.6 ± 9.3 | 109.7 ± 8.0 | 297.5 |  | Luciferase activity values (HeLa cells): 75.9±3.0%; increase over background of the chemiluminescent signal ([1]; NRK sender:receiver 1:1, 10 μM apomorphine): three-fold increase; Receiver Cell Response ([1]; NRK sender:receiver 5:1, 6 hours, buffer = 100%, mean±SEM of 3): 324 ± 14.4%
C=C[C@@]1(C)CC(=O)[C@]2(O)[C@@]3(C)[C@@H](O)CCC(C)(C)[C@@H]3[C@H](O)[C@H](OC(C)=O)[C@@]2(C)O1 [Forskolin, forskolin] | 876.6%±64.1 | 356.5 ± 21.8 | 701.9 ± 0.0 | 254.6 ± 113.3 | 272.5 ± 40.9 | 139.0 ± 14.3 | 195.1 ± 18.2 | 732.6 ± 52.2 | 669.9 ± 18.3 | 685.8 ± 32.0 | 581.3 | 669.3±56.8 | increase in chemiluminescent signal (NRK cells; 10 μM forskolin): more than 8 fold
Nc1ncnc2c1ncn2[C@@H]1O[C@@H]2COP(=O)(O)O[C@H]2[C@H]1O [cAMP, cyclic adenosine monophosphate] |  |  |  |  |  |  |  |  |  |  |  | 87.5±5.8 | 
glucagon |  |  |  |  |  |  |  |  |  |  |  |  | plasma levels of cAMP [4]: up to 200 nM
